logP | Compound
1.61 | CCCNc1cc(-c2nnc(N)[nH]2)ccn1
2.63 | Nc1nc(-c2ccnc(NCCc3ccccc3)c2)n[nH]1
0.69 | CNc1cc(-c2n[nH]c(N)n2)ccn1
2.15 | CCCCNc1cc(-c2n[nH]c(N)n2)ccn1
1.13 | CCNc1cc(-c2nc(N)n[nH]2)ccn1
0.94 | COCCNc1cc(-c2nnc(N)[nH]2)ccn1
3.05 | Nc1nc(-c2ccnc(NCCCc3ccccc3)c2)n[nH]1

The next lines start with the compound.

Compound | logP
CCCCCCNc1cc(-c2n[nH]c(N)n2)ccn1 | 3.3
Cc1ccc(CNc2cc(-c3n[nH]c(N)n3)ccn2)cc1 | 2.69
CCCCCCCCCCNc1cc(-c2nnc(N)[nH]2)ccn1 | 4.07
Nc1cc(-c2nnc(N)[nH]2)ccn1 | 0.11
Nc1n[nH]c(-c2ccnc(NCCO)c2)n1 | 0.24
C=CCNc1cc(-c2nc[nH]n2)ccn1 | 1.26
